Assay results taken from US20230242532A1, “TETRACYCLIC PYRIMIDINONE COMPOUND, PREPARATION METHOD THEREFOR, AND COMPOSITION AND USE THEREOF” (NEUSCO BIOTECH LIMITED, priority 2019, published 2023).
Read-outs that look alike come from different tables or passages of the source.

Assays:
[1] = biological target: T1, recombinant human Lp-PLA2 enzyme (Homo sapiens, UniProt Q13093); assay: Recombinant human Lp-PLA2 assay (rhLp-PLA2), PED6 assay; type: biochemical
T1 sequence (Q13093 22-441): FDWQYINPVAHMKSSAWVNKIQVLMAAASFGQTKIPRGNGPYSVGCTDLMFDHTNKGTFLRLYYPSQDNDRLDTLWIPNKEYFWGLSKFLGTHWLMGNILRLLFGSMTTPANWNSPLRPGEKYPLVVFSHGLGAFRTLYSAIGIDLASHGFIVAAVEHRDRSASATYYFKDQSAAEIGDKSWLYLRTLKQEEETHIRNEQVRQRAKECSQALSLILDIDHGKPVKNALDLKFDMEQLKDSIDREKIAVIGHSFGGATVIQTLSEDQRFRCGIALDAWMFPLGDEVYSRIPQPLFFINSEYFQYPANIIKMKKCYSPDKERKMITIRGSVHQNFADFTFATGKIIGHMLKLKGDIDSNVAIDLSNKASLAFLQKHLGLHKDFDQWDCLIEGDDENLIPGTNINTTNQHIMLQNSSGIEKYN
Procedure: (1) Recombinant Human Lp-PLA2 Assay (rhLp-PLA2), Also Referred to as PED6 Assay
PED6 was a fluorescently-labeled phospholipid that could be purchased dorectly from Invitogene or Molecular Probes. […] Once cleaved by the Lp-PLA2 enzyme, it would release the FL group, resulting in enhanced fluorescence.
Assay Method: The compound to be tested (as shown in Table 1) was mixed with a DMSO solution in a volume ratio of 1:3, and diluted to prepare a source plate of a 384-well microplate. Then 0.01 μl of the compound was transferred via an ECHO liquid dispenser from the source plate to a 384-well Greiner 784076 plate, and 5 μl of a buffer consisting of 50 mM HEPES, pH7.4, 150 mM NaCl, and 1 mM CHAPS (the buffer solution containing a recombinant human Lp-PLA2 enzyme at a concentration of 4 nM or 110 pM) was added to each well of the plate. The plate was centrifuged at 500 rpm for 10 seconds. After a 30-min pre-incubation, 5 μl of the above-mentioned buffer was added to a 384-well Greiner 784076 plate, the plate was centrifuged at 500 rpm for 10 seconds.

[2] = biological target: T2, Lp-PLA2 enzyme in human plasma (Homo sapiens, UniProt Q13093); assay: Assay of Lp-PLA2 in human plasma (Thio-PAF assay); type: biochemical
T2 construct: from tissue; host or cells: mixed (pooled) human plasma
T2 sequence (Q13093 22-441): T1 sequence (Q13093 22-441)
Procedure: (2) Assay of Lp-PLA2 in Human Plasma (Also Referred to as Thio-PAF Assay)
The human plasma assay was conducted using the sulphatide analog of PAF (phosphatidylcholine). After hydrolysis, it would generate phospholipids containing free sulfhydryl groups, which would be subjected to Michael addition with CPM to generate fluorescence-enhancing maleimide. Continuous quantitative analysis of thiol could be conducted by detecting the fluorescence intensity. This assay could be used to detect the inhibitory activity of the Lp-PLA2 inhibitor on the Lp-PLA2 enzyme in human plasma.
Assay Method: The compound to be tested (as shown in Table 2) was mixed with a DMSO solution in a volume ratio of (1:3), and diluted to prepare a source plate of a 384-well microplate. Then 0.01 μl of the compound was transferred via an ECHO liquid dispenser from the source plate to a 384-well Greiner 784076 plate, and 8 μl of pre-aliquoted and frozen mixed human plasma was then added. The plate was centrifuged at 500 rpm for 10 seconds. After a 30-min pre-incubation, 2 μl of a substrate solution, and a buffer containing 2.5 mM 2-thio-PAF (a solution in ethanol), 32 μM CPM (a solution in DMSO) and 3.2 mM N-ethylmaleimide (NEM) (a buffer solution consisting of 50 mM HEPES, pH7.4, 150 mM NaCl, 1 mM CHAPS) was added by a BRAVO liquid handling station to a 384-well Greiner 784076 low-volume plate. Two minutes later, the reaction was quenched with 5 μl of 5% trifluoroacetic acid. After the plate was incubated at room temperature for 40 min in a dark place, the fluorescence intensity was read at ex 380/em 485 with an Envision microplate reader, and the XL fitting model in Excel was used to perform the curve analysis and QC analysis to calculate pIC50.

[3] = PED6 substrate, recombinant human Lp-PLA2 at 4 nM or 110 pM, 30-min pre-incubation, fluorescence ex 480/em 540, read-out: rhLp-PLA2 (pIC50) (converted)
[4] = mixed human plasma, 2-thio-PAF substrate with CPM, 30-min pre-incubation, fluorescence ex 380/em 485, read-out: Thio-PAF (pIC50) (converted)

Compound | IC50 [1, 3] [nM] | IC50 [2, 4] [nM] | IC50 [1] [nM] | IC50 [2] [nM]
O=c1nc(OCc2cccc(F)c2F)cc2n1CC13CCC(CC1)N23 [Compound 1] | – | – | 2.51 | 100
O=c1nc(OCc2ccc(F)cc2)cc2n1CC13CCC(CC1)N23 [Compound 2] | – | – | 0.794 | 25.1
O=c1nc(OCc2ccc(F)c(F)c2)cc2n1CC13CCC(CC1)N23 [Compound 3] | – | – | 0.501 | 15.8
O=c1nc(OCc2cc(F)c(Oc3ccnc(C(F)(F)F)c3)c(F)c2)cc2n1CC13CCC(CC1)N23 [Compound 4] | 0.0398 | 3.98 | – | –
Cc1cc(Oc2c(F)cc(COc3cc4n(c(=O)n3)CC35CCC(CC3)N45)cc2F)ccn1 [Compound 7] | 0.0398 | 3.16 | – | –
Cc1ccc(Oc2c(F)cc(COc3cc4n(c(=O)n3)CC35CCC(CC3)N45)cc2F)cn1 [Compound 8] | 0.0316 | 7.94 | – | –
Cc1ncc(Oc2c(F)cc(COc3cc4n(c(=O)n3)CC35CCC(CC3)N45)cc2F)cn1 [Compound 9] | 0.1 | 12.6 | – | –
O=c1nc(OCc2cc(F)c(Oc3ccc(Cl)c(C(F)(F)F)c3)c(F)c2)cc2n1CC13CCC(CC1)N23 [Compound 10] | 0.0631 | 7.94 | – | –
O=c1nc(OCc2cc(F)c(Oc3cccc(C(F)(F)F)c3)c(F)c2)cc2n1CC13CCC(CC1)N23 [Compound 11] | 0.0794 | 12.6 | – | –
Cc1cc(Oc2c(F)cc(COc3cc4n(c(=O)n3)CC35CCC(CC3)N45)cc2F)ccc1Cl [Compound 12] | 0.0794 | 10 | – | –
O=c1nc(OCc2cc(F)c(Oc3cnc(C(F)(F)F)nc3)c(F)c2)cc2n1CC13CCC(CC1)N23 [Compound 13] | 0.251 | 20 | – | –
O=c1nc(OCc2cc(F)c(Oc3ccnc(C(F)(F)F)c3)c(F)c2)cc2n1CC13CCCC(CC1)N23 (stereo not drawn) [Compound 18] | 0.1 | 7.94 | – | –
Cc1ncc(Oc2c(F)cc(COc3cc4n(c(=O)n3)CC35CCCC(CC3)N45)cc2F)cn1 (stereo not drawn) [Compound 19] | 0.316 | 15.8 | – | –

Further lines, with some results ahead:

IC50 [1, 3] [nM] | IC50 [2, 4] [nM] | Compound | IC50 [1] [nM] | IC50 [2] [nM]
0.0316 | 6.31 | O=c1nc(OCc2cc(F)c(Oc3ccc(C(F)(F)F)cc3)c(F)c2)cc2n1CC13CCC(CC1)N23 [Compound 5] | – | –
0.0501 | 7.94 | O=c1nc(OCc2cc(F)c(Oc3ccc(C(F)(F)F)nc3)c(F)c2)cc2n1CC13CCC(CC1)N23 [Compound 6] | – | –
0.0794 | 7.94 | O=c1nc(OCc2cc(F)c(Oc3ccc(C(F)(F)F)c(Cl)c3)c(F)c2)cc2n1CC13CCC(CC1)N23 [Compound 14] | – | –
0.1 | 12.6 | O=c1nc(OCc2cc(F)c(Oc3cccc(OC(F)(F)F)c3)c(F)c2)cc2n1CC13CCC(CC1)N23 [Compound 16] | – | –
0.0794 | 10 | O=c1nc(OCc2cc(F)c(Oc3ccc(OC(F)(F)F)c(Cl)c3)c(F)c2)cc2n1CC13CCC(CC1)N23 [Compound 17] | – | –
